Data from patent US20260365670A1, “EGFR INHIBITORS AND USES THEREOF” (DIZAL (JIANGSU) PHARMACEUTICAL CO., LTD., priority 2022, published 2026).
Where two headings read alike, the source gives them in different places.

What was measured:
EGFR wild type = target: T1, EGFR wild type (Homo sapiens, UniProt P00533); test: Inhibition of EGFR wild type biochemical enzymatic activity (HTRF); conditions: 1 mM ATP
T1 construct: purchased Carna Bio
How it was run: (§1)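 Enzyme preincubated with compound, then ATP (1 mM) and TK substrate-biotin (1 μM) added; 1 h RT; stopped with EDTA-containing detection mix; HTRF read (ex 320, em 615/665 nm); IC50 by 4-parameter logistic fit.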

EGFR (C797S L858R) = target: T2, EGFR (C797S L858R) (Homo sapiens, UniProt P00533, C797S/L858R); test: Inhibition of EGFR (C797S L858R) biochemical enzymatic activity (HTRF); conditions: 1 mM ATP
T2 construct: purchased signalchem
How it was run: as §1

EGFR (d746-750 C797S) = target: T3, EGFR (d746-750 C797S) (Homo sapiens, UniProt P00533, C797S/DEL746-750); test: Inhibition of EGFR (d746-750 C797S) biochemical enzymatic activity (HTRF); conditions: 1 mM ATP
T3 construct: purchased signalchem
T3 sequence (P00533 with tags, fused parts or gaps DEL746-750/C797S limits assumed): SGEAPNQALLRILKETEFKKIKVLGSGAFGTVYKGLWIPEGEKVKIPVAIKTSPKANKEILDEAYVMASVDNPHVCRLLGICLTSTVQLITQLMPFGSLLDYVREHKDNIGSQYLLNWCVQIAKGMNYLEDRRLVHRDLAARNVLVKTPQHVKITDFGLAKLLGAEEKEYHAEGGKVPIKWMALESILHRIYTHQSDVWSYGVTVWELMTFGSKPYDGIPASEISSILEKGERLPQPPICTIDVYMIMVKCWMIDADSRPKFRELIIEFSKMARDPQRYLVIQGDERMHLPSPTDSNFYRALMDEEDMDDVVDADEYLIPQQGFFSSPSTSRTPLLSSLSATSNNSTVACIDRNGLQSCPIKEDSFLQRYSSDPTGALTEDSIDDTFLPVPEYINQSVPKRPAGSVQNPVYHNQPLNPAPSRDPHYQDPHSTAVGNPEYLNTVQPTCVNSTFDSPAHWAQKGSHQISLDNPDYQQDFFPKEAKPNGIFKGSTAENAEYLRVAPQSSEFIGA
How it was run: as §1

EGFR Exon19Del = target: T4, EGFR Exon19Del (Homo sapiens, UniProt P00533, DEL746-750); test: Inhibition of EGFR Exon19Del biochemical enzymatic activity (HTRF); conditions: read-out: IC50 @Del19
T4 construct: purchased Carna Bio
T4 sequence (P00533 with tags, fused parts or gaps DEL746-750 limits assumed): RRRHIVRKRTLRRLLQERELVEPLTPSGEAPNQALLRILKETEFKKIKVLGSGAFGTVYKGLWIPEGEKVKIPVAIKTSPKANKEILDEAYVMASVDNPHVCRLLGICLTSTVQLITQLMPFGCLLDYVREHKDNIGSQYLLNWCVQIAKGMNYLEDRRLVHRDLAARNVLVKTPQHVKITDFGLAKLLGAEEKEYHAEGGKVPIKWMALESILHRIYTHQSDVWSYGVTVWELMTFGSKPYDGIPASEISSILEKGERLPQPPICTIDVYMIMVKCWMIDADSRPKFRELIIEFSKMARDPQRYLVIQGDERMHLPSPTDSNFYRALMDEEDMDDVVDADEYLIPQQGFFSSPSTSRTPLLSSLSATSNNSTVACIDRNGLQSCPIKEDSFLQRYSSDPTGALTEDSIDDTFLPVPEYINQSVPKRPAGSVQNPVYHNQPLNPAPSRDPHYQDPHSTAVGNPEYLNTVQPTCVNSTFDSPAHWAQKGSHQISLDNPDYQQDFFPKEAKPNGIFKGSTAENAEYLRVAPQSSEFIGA
How it was run: as §1

EGFR L858R = target: T5, EGFR L858R (Homo sapiens, UniProt P00533, L858R); test: Inhibition of EGFR L858R biochemical enzymatic activity (HTRF); conditions: 1 mM ATP
T5 construct: purchased Carna Bio
How it was run: as §1

[1] = target: T6, EGFR[T790M/C797S/d746-750] (Homo sapiens, UniProt P00533, C797S/DEL746-750/T790M); test: Inhibition of EGFR[T790M/C797S/d746-750] biochemical enzymatic activity (HTRF)
T6 construct: purchased Carna Bio
T6 sequence (P00533 with tags, fused parts or gaps DEL746-750/T790M/C797S limits assumed): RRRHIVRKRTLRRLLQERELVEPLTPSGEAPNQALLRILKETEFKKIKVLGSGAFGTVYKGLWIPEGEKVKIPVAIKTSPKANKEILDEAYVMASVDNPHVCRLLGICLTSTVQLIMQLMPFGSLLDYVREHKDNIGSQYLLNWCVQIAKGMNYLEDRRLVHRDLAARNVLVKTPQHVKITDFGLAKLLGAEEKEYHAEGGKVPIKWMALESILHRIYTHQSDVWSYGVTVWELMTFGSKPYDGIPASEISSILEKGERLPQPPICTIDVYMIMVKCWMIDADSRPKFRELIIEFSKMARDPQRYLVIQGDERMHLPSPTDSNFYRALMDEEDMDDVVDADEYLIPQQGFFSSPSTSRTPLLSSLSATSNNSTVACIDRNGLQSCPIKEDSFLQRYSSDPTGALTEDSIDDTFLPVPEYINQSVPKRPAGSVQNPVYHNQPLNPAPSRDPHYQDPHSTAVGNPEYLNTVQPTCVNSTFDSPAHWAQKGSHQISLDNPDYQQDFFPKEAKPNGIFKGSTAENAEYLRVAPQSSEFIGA
How it was run: as §1

PC-9 = test: Cell proliferation assay, PC-9 cells (CellTiter-Glo, 72 hours); assay type: cell-based; conditions: PC9 cells
How it was run: (§2)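 In RPMI1640 medium (PC-9 with 10% FBS), each cell line was seeded at its own density: Ba/F3 5000 and PC-9 500 per well. A compound series was added the next day, with a time-zero viability plate read in parallel. Percent proliferation was subtracted for G0 and referenced to DMSO, and GI50 was derived by curve fitting.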

EGFR[T790M/C797S/L858R] = target: T7, EGFR[T790M/C797S/L858R] (Homo sapiens, UniProt P00533, C797S/L858R/T790M); test: Inhibition of EGFR[T790M/C797S/L858R] biochemical enzymatic activity (HTRF); conditions: 1 mM ATP
T7 construct: purchased Carna Bio
T7 sequence (P00533 25-1210 T790M/C797S/L858R): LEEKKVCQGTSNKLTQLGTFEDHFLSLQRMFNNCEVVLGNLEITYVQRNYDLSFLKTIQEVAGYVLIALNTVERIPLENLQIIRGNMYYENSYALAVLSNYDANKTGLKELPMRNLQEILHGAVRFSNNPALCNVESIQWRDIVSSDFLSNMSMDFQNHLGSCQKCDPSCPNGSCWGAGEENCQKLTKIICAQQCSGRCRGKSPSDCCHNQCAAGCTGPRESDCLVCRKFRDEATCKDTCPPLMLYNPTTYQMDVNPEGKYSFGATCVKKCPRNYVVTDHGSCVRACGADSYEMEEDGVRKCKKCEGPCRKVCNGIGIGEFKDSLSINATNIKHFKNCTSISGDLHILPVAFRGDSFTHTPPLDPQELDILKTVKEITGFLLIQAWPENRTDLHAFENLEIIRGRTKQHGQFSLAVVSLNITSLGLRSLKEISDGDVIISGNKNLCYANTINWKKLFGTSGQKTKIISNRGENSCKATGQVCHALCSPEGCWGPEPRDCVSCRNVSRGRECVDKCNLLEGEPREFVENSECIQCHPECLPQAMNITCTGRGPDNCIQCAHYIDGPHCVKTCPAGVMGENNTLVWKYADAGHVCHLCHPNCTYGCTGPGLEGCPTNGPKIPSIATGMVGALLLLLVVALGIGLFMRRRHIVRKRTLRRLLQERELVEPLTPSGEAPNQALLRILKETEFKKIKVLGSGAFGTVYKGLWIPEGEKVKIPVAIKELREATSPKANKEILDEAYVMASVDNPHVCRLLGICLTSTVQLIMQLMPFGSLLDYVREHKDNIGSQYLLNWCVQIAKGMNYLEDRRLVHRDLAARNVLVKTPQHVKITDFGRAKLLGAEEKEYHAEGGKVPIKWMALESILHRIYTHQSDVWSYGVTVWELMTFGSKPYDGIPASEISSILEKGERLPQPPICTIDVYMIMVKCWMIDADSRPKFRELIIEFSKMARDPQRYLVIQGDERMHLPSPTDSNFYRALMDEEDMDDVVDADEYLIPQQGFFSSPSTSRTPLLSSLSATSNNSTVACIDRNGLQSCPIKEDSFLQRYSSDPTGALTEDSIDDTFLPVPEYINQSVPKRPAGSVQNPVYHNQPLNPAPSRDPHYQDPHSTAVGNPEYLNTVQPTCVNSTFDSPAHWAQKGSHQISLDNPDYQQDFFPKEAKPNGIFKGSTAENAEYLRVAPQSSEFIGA
How it was run: as §1

EGFR L858R/T790M = target: T8, EGFR L858R/T790M (Homo sapiens, UniProt P00533, L858R/T790M); test: Inhibition of EGFR L858R/T790M biochemical enzymatic activity (HTRF); conditions: 1 mM ATP
T8 construct: purchased Carna Bio
T8 sequence (P00533 25-1210 T790M/L858R): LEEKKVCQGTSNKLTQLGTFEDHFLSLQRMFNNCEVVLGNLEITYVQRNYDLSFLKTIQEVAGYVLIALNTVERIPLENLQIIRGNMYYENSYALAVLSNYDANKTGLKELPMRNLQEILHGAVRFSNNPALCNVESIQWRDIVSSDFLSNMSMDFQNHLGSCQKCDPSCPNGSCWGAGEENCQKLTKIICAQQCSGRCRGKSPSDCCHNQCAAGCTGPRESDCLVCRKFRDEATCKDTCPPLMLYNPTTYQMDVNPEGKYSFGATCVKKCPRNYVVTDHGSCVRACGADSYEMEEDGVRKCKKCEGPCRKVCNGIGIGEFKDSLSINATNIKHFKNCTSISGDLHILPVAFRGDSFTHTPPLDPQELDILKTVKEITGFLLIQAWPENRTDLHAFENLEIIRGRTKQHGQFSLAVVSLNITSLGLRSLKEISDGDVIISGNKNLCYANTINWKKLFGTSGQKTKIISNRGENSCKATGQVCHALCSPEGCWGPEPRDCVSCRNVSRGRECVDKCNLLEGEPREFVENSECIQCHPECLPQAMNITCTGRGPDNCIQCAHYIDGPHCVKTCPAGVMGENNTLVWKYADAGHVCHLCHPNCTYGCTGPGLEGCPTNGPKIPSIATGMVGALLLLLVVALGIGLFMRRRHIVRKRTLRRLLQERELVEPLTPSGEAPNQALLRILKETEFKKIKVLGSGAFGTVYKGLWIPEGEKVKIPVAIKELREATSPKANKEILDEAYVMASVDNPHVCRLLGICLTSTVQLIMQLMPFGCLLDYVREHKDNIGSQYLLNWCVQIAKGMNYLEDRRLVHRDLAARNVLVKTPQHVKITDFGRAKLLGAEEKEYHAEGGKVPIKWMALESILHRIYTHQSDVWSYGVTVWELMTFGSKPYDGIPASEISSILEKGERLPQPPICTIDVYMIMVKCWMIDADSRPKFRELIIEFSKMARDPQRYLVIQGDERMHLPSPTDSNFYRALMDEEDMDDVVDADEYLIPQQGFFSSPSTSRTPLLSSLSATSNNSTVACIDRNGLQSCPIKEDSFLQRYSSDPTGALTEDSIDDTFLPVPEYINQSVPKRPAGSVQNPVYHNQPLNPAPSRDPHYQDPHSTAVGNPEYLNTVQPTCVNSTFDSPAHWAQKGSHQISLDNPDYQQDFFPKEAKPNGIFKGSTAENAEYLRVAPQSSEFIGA
How it was run: as §1

EGFR Exon19Del/T790M = target: T9, EGFR Exon19Del/T790M (Homo sapiens, UniProt P00533, DEL746-750/T790M); test: Inhibition of EGFR Exon19Del/T790M biochemical enzymatic activity (HTRF); conditions: 1 mM ATP
T9 construct: purchased Carna Bio
T9 sequence (P00533 with tags, fused parts or gaps DEL746-750/T790M limits assumed): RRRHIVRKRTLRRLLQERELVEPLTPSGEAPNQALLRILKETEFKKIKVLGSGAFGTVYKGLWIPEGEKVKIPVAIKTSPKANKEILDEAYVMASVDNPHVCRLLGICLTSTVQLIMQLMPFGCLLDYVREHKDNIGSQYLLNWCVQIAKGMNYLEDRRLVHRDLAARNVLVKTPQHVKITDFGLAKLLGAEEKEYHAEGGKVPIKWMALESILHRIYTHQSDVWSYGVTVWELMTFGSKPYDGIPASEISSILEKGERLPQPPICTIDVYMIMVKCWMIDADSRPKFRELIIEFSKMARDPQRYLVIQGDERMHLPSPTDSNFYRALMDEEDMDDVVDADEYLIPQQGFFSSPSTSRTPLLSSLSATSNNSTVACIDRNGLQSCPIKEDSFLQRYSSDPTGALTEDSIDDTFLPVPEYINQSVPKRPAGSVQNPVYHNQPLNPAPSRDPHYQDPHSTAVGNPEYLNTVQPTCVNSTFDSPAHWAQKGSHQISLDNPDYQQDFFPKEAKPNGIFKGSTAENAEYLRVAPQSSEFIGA
How it was run: as §1

[2] = tested on: Ba/F3 cells expressing EGFR mutations; test: Cell proliferation assay, Ba/F3 cells expressing EGFR mutations (CellTiter-Glo, 72 hours); assay type: cell-based
How it was run: as §2

[3] = EGFR wild type, 1 h at room temperature, read-out: IC50 @WT
[4] = EGFR (C797S L858R), 1 h at room temperature, read-out: IC50 @L858-C797S
[5] = EGFR (d746-750 C797S), 1 h at room temperature, read-out: IC50 @Del19-C797S
[6] = EGFR Exon19Del, 1 mM ATP, 1 h at room temperature
[7] = 1 h at room temperature, read-out: IC50 @L858R
[8] = EGFR[T790M/C797S/d746-750], 1 mM ATP, 1 h at room temperature, read-out: IC50 @T790M - C797S - Del19
[9] = EGFR[T790M/C797S/L858R], 1 h at room temperature, read-out: IC50 @T790M- C797S - L858R
[10] = EGFR L858R/T790M, 1 h at room temperature, read-out: IC50 @L858R-T790M
[11] = EGFR Exon19Del/T790M, 1 h at room temperature, read-out: IC50 @Del19-T790M
[12] = BaF3 cells, EGFR DEL19 - C797S, read-out: GI50 DEL19 - C797S/BaF3
[13] = BaF3 cells, EGFR DEL19 - T790-C797S, read-out: GI50 DEL19 - T790-C797S/BaF3
[14] = BaF3 cells, EGFR L858R - C797S, read-out: GI50 L858R - C797S/BaF3
[15] = BaF3 cells, EGFR L858R - T790-C797S, read-out: GI50 L858R - T790-C797S/BaF3
[16] = BaF3 cells, EGFR L858R - T790M, read-out: GI50 L858R - T790M/BaF3
[17] = BaF3 cells, EGFR L858R, read-out: GI50 L858R/BaF3
[18] = EGFR DEL19 - T790M, read-out: GI50 DEL19 - T790M

Compound | IC50 (EGFR wild type; [3]) | IC50 (EGFR (C797S L858R); [4]) | IC50 (EGFR (d746-750 C797S); [5]) | IC50 (EGFR Exon19Del; [6]) | IC50 (EGFR L858R; [7]) | IC50 [1, 8] | GI50 (PC-9; read-out: GI50 PC9) | IC50 (EGFR[T790M/C797S/L858R]; [9]) | IC50 (EGFR L858R/T790M; [10]) | IC50 (EGFR Exon19Del/T790M; [11]) | GI50 [2, 12] | GI50 [2, 13] | GI50 [2, 14] | GI50 [2, 15] | GI50 [2, 16] | GI50 [2, 17] | GI50 [2, 18] | other results
CCN1CCN(c2ccc3nc4n(c3c2)C23CCC(CN(CCOc5c(cnn5C)-c5cc(cc(C)n5)C(=O)N4)C2)C3)CC1 (single isomer, unassigned) [Example B56A] | > 5000 nM | > 5000 nM | 2390 nM | 3180 nM | > 5000 nM | 360 nM | 443 nM | > 5000 nM | > 5000 nM | 1320 nM | 82 nM | 145 nM | 417 nM | 58 nM | 80 nM | 1030 nM | 230 nM | 
Cc1cc2cc(n1)-c1cnn(C)c1OCCN1CC3CCC(C3)(C1)n1c(nc3ccc(N4CCN(C(C)C)CC4)cc31)NC2=O (single isomer, unassigned) [Example B57A] | > 5000 nM | > 5000 nM | > 5000 nM | > 5000 nM | > 5000 nM | 792 nM | 941 nM | > 5000 nM | > 5000 nM | 1770 nM | 208 nM | 428 nM | 829 nM | 147 nM | 324 nM | 2000 nM | 612 nM | 
C[C@@H]1CCCOc2c(cnn2CC(F)(F)F)-c2cc(cn(C)c2=O)C(=O)Nc2nc3ccc(N4CCN(C)CC4)cc3n2C1 [Example A20, (11R)-11,26-Dimethyl-16-(4-methylpiperazin-1-yl)-5-(2,2,2-trifluoroethyl)-7-oxa-4,5,13,20,22,26-hexaazapentacyclo[22.3.1.0^{2,6}.0^{13,21}.0^{14,19}]octacosa-1(28),2(6),3,14,16,18,20,24-octaene-23,27-dione] |  |  |  |  |  |  |  |  |  |  |  |  |  |  |  |  |  | IC50 (EGFR wild type; EGFR WT, 1 h, room temperature, read-out: IC50 (nM) @WT): > 5000 nM; IC50 (EGFR (C797S L858R); EGFR L858-C797S, 1 h, room temperature, read-out: IC50 (nM) @L858-C797S): 132 nM; IC50 (EGFR (d746-750 C797S); EGFR Del19-C797S, 1 h, room temperature, read-out: IC50 (nM) @Del19-C797S): 42 nM; IC50 (EGFR Exon19Del; EGFR Del19, 1 mM ATP, 1 h, room temperature): 86 nM; IC50 (EGFR L858R; 1 h, room temperature, read-out: IC50 (nM) @L858R): 301 nM; IC50 ([1]; EGFR T790M-C797S-Del19, 1 mM ATP, 1 h, room temperature, read-out: IC50 (nM) @T790M - C797S - Del19): 40 nM; GI50 (PC-9; Homo sapiens, PC-9, 72 h, CellTiter-Glo, read-out: PC9 GI50): 145 nM; IC50 (EGFR[T790M/C797S/L858R]; EGFR T790M-C797S-L858R, 1 h, room temperature, read-out: IC50 (nM) @T790M- C797S - L858R): 76 nM; IC50 (EGFR L858R/T790M; EGFR L858R-T790M, 1 h, room temperature, read-out: IC50 (nM) @L858R-T790M): 82 nM; IC50 (EGFR Exon19Del/T790M; EGFR Del19-T790M, 1 h, room temperature, read-out: IC50 (nM) @Del19-T790M): 41 nM; GI50 ([2]; Mus musculus, BaF3, 72 h, BaF3 cells, EGFR DEL19-C797S, CellTiter-Glo, read-out: DEL19-C797S/BaF3 GI50): 17.1 nM; GI50 ([2]; Mus musculus, BaF3, 72 h, BaF3 cells, EGFR DEL19-T790-C797S, CellTiter-Glo, read-out: DEL19-T790-C797S/BaF3 GI50): 204 nM; GI50 ([2]; Mus musculus, BaF3, 72 h, BaF3 cells, EGFR L858R, CellTiter-Glo, read-out: L858R/BaF3 GI50): 89 nM; GI50 ([2]; Mus musculus, BaF3, 72 h, BaF3 cells, EGFR L858R-C797S, CellTiter-Glo, read-out: L858R-C797S/BaF3 GI50): 87 nM; GI50 ([2]; Mus musculus, BaF3, 72 h, BaF3 cells, EGFR L858R-T790-C797S, CellTiter-Glo, read-out: L858R-T790-C797S/BaF3 GI50): 51 nM; GI50 ([2]; Mus musculus, BaF3, 72 h, BaF3 cells, EGFR L858R-T790M, CellTiter-Glo, read-out: L858R-T790M/BaF3 GI50): 39 nM; GI50 ([2]; Mus musculus, BaF3, 72 h, EGFR DEL19-T790M, CellTiter-Glo, read-out: DEL19-T790M GI50): 226 nM
Cc1cc2cc(n1)-c1cnn(C)c1OCCN1CCOCC(C1)n1c(nc3ccccc31)NC2=O (stereo not drawn) [Example B7B, 15,21-dimethyl-23,29-dioxa-2,9,11,16,20,21,26-heptaazahexacyclo[24.4.1.1^{13,17}.0^{2,10}.0^{3,8}.0^{18,22}]dotriaconta-3,5,7,9,13(32),14,16,18(22),19-nonaen-12-one] | > 5000 nM | 4430 nM | 322 nM | 864 nM | > 5000 nM | 17 nM | 469 nM | 529 nM | 909 nM | 42 nM | 173 nM | 130 nM | 253 nM | 123 nM | 292 nM | 1600 nM | 189 nM | 

Further lines, with some results ahead:

IC50 (EGFR wild type; [3]) | IC50 (EGFR (C797S L858R); [4]) | IC50 (EGFR (d746-750 C797S); [5]) | IC50 (EGFR Exon19Del; [6]) | IC50 (EGFR L858R; [7]) | IC50 [1, 8] | GI50 (PC-9; read-out: GI50 PC9) | IC50 (EGFR[T790M/C797S/L858R]; [9]) | IC50 (EGFR L858R/T790M; [10]) | IC50 (EGFR Exon19Del/T790M; [11]) | GI50 [2, 12] | GI50 [2, 13] | GI50 [2, 14] | GI50 [2, 15] | GI50 [2, 16] | GI50 [2, 17] | GI50 [2, 18] | Compound | other results
> 5000 nM | > 5000 nM | > 5000 nM | > 5000 nM | > 5000 nM | 514 nM | 930 nM | > 5000 nM | > 5000 nM | 1140 nM | 227 nM | 474 nM | 751 nM | 144 nM | 299 nM | 1130 nM | 788 nM | Cc1cc2cc(n1)-c1cnn(C)c1OCCN1CC3CCC(C3)(C1)n1c(nc3ccc(N4CCC(N5CCN(C)CC5)CC4)cc31)NC2=O (single isomer, unassigned) [Example B59A] | 
360 nM | 9.5 nM | 5 nM | 12 nM | 27 nM | 6.1 nM | 32 nM | 4.4 nM | 7.7 nM | 10 nM | 11 nM | 12 nM | 27 nM | 3 nM | 11 nM | 36 nM | 13 nM | Cc1cc2cc(n1)-c1cnn(C)c1OCCN1CC3CCC(C3)(C1)n1c(nc3ccc(N4CCC(N5CCN(C)CC5)CC4)cc31)NC2=O (single isomer, unassigned) [Example B59B] | 
